For one test, the system named is VCaP cells. The experiment in a line: VCaP growth inhibition assay. The class given is cell-based. The settings on record: 30 pM R1881, 9 days, CTG. As to the method: VCaP cells (ATCC Cat #CRL-2876) are plated at 1×10^4 cells per well of a white plastic 96-well cluster plate (Thermo Scientific Nunc Cat #165306) in 100 uL phenol red-free DMEM (Gibco Cat #21063-029) media with 5% CSS (Omega Scientific Cat #FB-04). Cluster plates are returned to the incubator (37*C/5% CO2) for 72 hours prior to treatment. Just prior to treatment, 100 μL of phenol red-free DMEM/5% CSS and […] R1881 (Sigma Cat #R0908-10 mg) was added to each well of the cluster plates (Final R1881 concentration=30 pM). Compounds (200×) were added to each well in a volume of 1 uL, with serial dilutions (1:5) from 20 uM to 2 pM (final concentrations in well are 100 nM to 10 fM). Cluster plates are returned to the incubator for 9 days.
After the 9-day treatment period, media was removed from the cluster plates by inversion and 100 uL room temperature CTG reagent (Promega Cat #G7573) is added to each well. The cluster plates are placed on a shaker and incubated at room temperature for 20 minutes. Following this shaking/incubation, cluster plates are read on a luminometer (BMG ClarioStar). IC50 values are obtained by graphing the RLU data vs. compound concentration with nonlinear regression 4-parameter logistic curves (GraphPad Prism).

In the next test the test system is AR / CBP ternary complex. In words: Ternary complex formation assay (sandwich ELISA, AR capture / CBP detection) in VCaP cell lysates. The class given is cell-based. To be noted: 1.5 hours treatment, sandwich ELISA (AR capture, CBP or p300 detection). A digest of the protocol: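 VCaP cells (50K/well, 5% charcoal-stripped FBS, ≥3 days) treated with bifunctional compound for 1.5 h, then lysed 30 min at 4 °C. AR captured on anti-AR (AR 441) plates; bound CBP or p300 detected by rabbit mAb plus HRP secondary. QuantaRed chemifluorescence read at ex 570/em 585, immediately and at 5 and 15 min.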
In general terms: In an ELISA, binding on a coated surface is turned into a signal by an enzyme label.

For `CC(=O)N1CCc2c(c(N3CCCc4cc(-c5cnn(C)c5)c(C(F)F)cc43)nn2CCN(C)c2ncc(C(=O)NC3C(C)(C)C(Oc4ccc(C#N)c(Cl)c4)C3(C)C)cn2)C1` (centres unmarked) [Compound 45, 2-[2-[5-acetyl-3-[7-(difluoromethyl)-6-(1-methylpyrazol-4-yl)-3,4-dihydro-2H-quinolin-1-yl]-6,7-dihydro-4H-pyrazolo[4,3-c]pyridin-1-yl]ethyl-methyl-amino]-N-[3-(3-chloro-4-cyano-phenoxy)-2,2,4,4-tetramethyl-cyclobutyl]pyrimidine-5-carboxamide], in the test on VCaP cells, the IC50 (in general, the midpoint of a concentration-inhibition curve) was more than 100 nM. Further, the EC50 (commonly the concentration at which the effect is half-maximal) in the test on AR / CBP ternary complex was more than 100 nM.

`CC(=O)N1CCc2c(c(N3CCCc4cc(-c5cnn(C)c5)c(C(F)F)cc43)nn2C2CCN([C@@H]3CCCN(c4ncc(C(=O)NC5C(C)(C)C(Oc6ccc(C#N)c(Cl)c6)C5(C)C)cn4)C3)CC2)C1` (stereo partly drawn) [Compound 398, 2-[(3R)-3-[4-[5-acetyl-3-[7-(difluoromethyl)-6-(1-methylpyrazol-4-yl)-3,4-dihydro-2H-quinolin-1-yl]-6,7-dihydro-4H-pyrazolo[4,3-c]pyridin-1-yl]-1-piperidyl]-1-piperidyl]-N-[3-(3-chloro-4-cyano-phenoxy)-2,2,4,4-tetramethyl-cyclobutyl]pyrimidine-5-carboxamide]: the IC50 with VCaP cells was 1 to 100 nM. Also, the EC50 in the test on AR / CBP ternary complex lay within 1 to 10 nM.

For `Cn1c(=O)sc2ccc(N3CCCc4cc(-c5ccc(CCC6CCN(c7ncc(C(=O)NC8C(C)(C)C(Oc9ccc(C#N)c(Cl)c9)C8(C)C)cn7)CC6)nc5)c(C(F)F)cc43)cc21` (centres unmarked) [Compound 236, N-[3-(3-chloro-4-cyano-phenoxy)-2,2,4,4-tetramethyl-cyclobutyl]-2-[4-[2-[5-[7-(difluoromethyl)-1-(3-methyl-2-oxo-1,3-benzothiazol-5-yl)-3,4-dihydro-2H-quinolin-6-yl]-2-pyridyl]ethyl]-1-piperidyl]pyrimidine-5-carboxamide], the IC50 in the test with VCaP cells is more than 100 nM. In the test on AR / CBP ternary complex, this compound displayed an EC50 of more than 100 nM.

`COc1cc(OC2C(C)(C)C(NC(=O)c3ccc(OC4CCC5(CC4)CC(N4CCC(n6nc(N7CCCc8cc(-c9cnn(C)c9)c(C(F)F)cc87)c7c6CCN(C(C)=O)C7)CC4)C5)cc3)C2(C)C)ccc1C#N` (centres unmarked) [Compound 396, 4-[2-[4-[5-acetyl-3-[7-(difluoromethyl)-6-(1-methylpyrazol-4-yl)-3,4-dihydro-2H-quinolin-1-yl]-6,7-dihydro-4H-pyrazolo[4,3-c]pyridin-1-yl]-1-piperidyl]spiro[3.5]nonan-7-yl]oxy-N-[3-(4-cyano-3-methoxy-phenoxy)-2,2,4,4-tetramethyl-cyclobutyl]benzamide] displayed an IC50 in the test with VCaP cells of 0.1 to 1 nM. The compound further returned an EC50 in the test on AR / CBP ternary complex of less than 1 nM.

As to `COc1cc(OC2C(C)(C)C(NC(=O)c3ccc(N4CCC(n5ncc6c5CCC(n5nc(N7CCCc8cc(-c9cnn(C)c9)c(C(F)F)cc87)c7c5CCN(C(C)=O)C7)C6)CC4)cc3)C2(C)C)ccc1C#N` (centres unmarked) [Compound 265, 4-[4-[5-[5-acetyl-3-[7-(difluoromethyl)-6-(1-methylpyrazol-4-yl)-3,4-dihydro-2H-quinolin-1-yl]-6,7-dihydro-4H-pyrazolo[4,3-c]pyridin-1-yl]-4,5,6,7-tetrahydroindazol-1-yl]-1-piperidyl]-N-[3-(4-cyano-3-methoxy-phenoxy)-2,2,4,4-tetramethyl-cyclobutyl]benzamide], in the test on VCaP cells, the IC50 is not above 0.1 nM. In the test on AR / CBP ternary complex, this compound came in with an EC50 of less than 1 nM.

`COc1cc(OC2C(C)(C)C(NC(=O)c3ccc(N4CCN(CCc5ccc(-c6cc7cccc(-c8nn(C9CCOCC9)c9c8CN(C(C)=O)CC9)c7cn6)cn5)CC4)cc3)C2(C)C)ccc1C#N` (centres unmarked) [Compound 250, 4-[4-[2-[5-[8-(5-acetyl-1-tetrahydropyran-4-yl-6,7-dihydro-4H-pyrazolo[4,3-c]pyridin-3-yl)-3-isoquinolyl]-2-pyridyl]ethyl]piperazin-1-yl]-N-[3-(4-cyano-3-methoxy-phenoxy)-2,2,4,4-tetramethyl-cyclobutyl]benzamide] returned an IC50 in the test on VCaP cells not above 0.1 nM. The same compound yielded an EC50 with AR / CBP ternary complex of less than 1 nM.

Turning to `CC(=O)N1CCc2c(c(N3CCCc4cc(-c5cnn(C)c5)c(C(F)F)cc43)nn2CCCN(C)c2ncc(C(=O)NC3C(C)(C)C(Oc4ccc(C#N)c(Cl)c4)C3(C)C)cn2)C1` (centres unmarked) [Compound 44, 2-[3-[5-acetyl-3-[7-(difluoromethyl)-6-(1-methylpyrazol-4-yl)-3,4-dihydro-2H-quinolin-1-yl]-6,7-dihydro-4H-pyrazolo[4,3-c]pyridin-1-yl]propyl-methyl-amino]-N-[3-(3-chloro-4-cyano-phenoxy)-2,2,4,4-tetramethyl-cyclobutyl]pyrimidine-5-carboxamide], in the test with VCaP cells, the IC50 was more than 100 nM. In addition, the EC50 in the test with AR / CBP ternary complex was more than 100 nM.

With `CC(=O)N1CCc2c(c(N3CCCc4cc(-c5cnn(C)c5)c(C(F)(F)F)cc43)nn2C2CCN(CC3CCN(c4ncc(C(=O)NC5C(C)(C)C(Oc6ccc(C#N)c(Cl)c6)C5(C)C)cn4)CC3)CC2)C1` (centres unmarked) [Compound 27, 2-[4-[[4-[5-acetyl-3-[6-(1-methylpyrazol-4-yl)-7-(trifluoromethyl)-3,4-dihydro-2H-quinolin-1-yl]-6,7-dihydro-4H-pyrazolo[4,3-c]pyridin-1-yl]-1-piperidyl]methyl]-1-piperidyl]-N-[3-(3-chloro-4-cyano-phenoxy)-2,2,4,4-tetramethyl-cyclobutyl]pyrimidine-5-carboxamide], in the test with VCaP cells, the IC50 lay within 0.1 to 1 nM. This compound showed an EC50 in the test with AR / CBP ternary complex of less than 1 nM.

Turning to `COc1cc(OC2C(C)(C)C(NC(=O)c3ccc(N4CCN(CCn5cc(-c6cc7cccc(-c8nn(C9CCOCC9)c9c8CN(C(C)=O)CC9)c7cn6)cn5)CC4)cc3)C2(C)C)ccc1C#N` (centres unmarked) [Compound 249, 4-[4-[2-[4-[8-(5-acetyl-1-tetrahydropyran-4-yl-6,7-dihydro-4H-pyrazolo[4,3-c]pyridin-3-yl)-3-isoquinolyl]pyrazol-1-yl]ethyl]piperazin-1-yl]-N-[3-(4-cyano-3-methoxy-phenoxy)-2,2,4,4-tetramethyl-cyclobutyl]benzamide], in the test on VCaP cells, the IC50 fell in the range of 0.1 to 1 nM. Besides, the EC50 in the test with AR / CBP ternary complex is less than 1 nM.

Turning to `CC(=O)N1CCc2c(c(N3CCCc4cc(-c5cnn(C)c5)c(C(F)F)cc43)nn2C2CCN(CC#CCCc3ncc(C(=O)NC4C(C)(C)C(Oc5ccc(C#N)c(Cl)c5)C4(C)C)cn3)CC2)C1` (centres unmarked) [Compound 18, 2-[5-[4-[5-acetyl-3-[7-(difluoromethyl)-6-(1-methylpyrazol-4-yl)-3,4-dihydro-2H-quinolin-1-yl]-6,7-dihydro-4H-pyrazolo[4,3-c]pyridin-1-yl]-1-piperidyl]pent-3-ynyl]-N-[3-(3-chloro-4-cyano-phenoxy)-2,2,4,4-tetramethyl-cyclobutyl]pyrimidine-5-carboxamide], the IC50 with VCaP cells was in the range of 0.1 to 1 nM. The compound also returned an EC50 with AR / CBP ternary complex of less than 1 nM.

Compound `CC(=O)N1CCc2c(c(N3CCCc4cc(-c5cnn(C)c5)c(C(F)F)cc43)nn2C2CCN(C(C)COC3CCN(c4ncc(C(=O)NC5C(C)(C)C(Oc6ccc(C#N)c(Cl)c6)C5(C)C)cn4)CC3)CC2)C1` (centres unmarked) [Compound 169, 2-[4-[2-[4-[5-acetyl-3-[7-(difluoromethyl)-6-(1-methylpyrazol-4-yl)-3,4-dihydro-2H-quinolin-1-yl]-6,7-dihydro-4H-pyrazolo[4,3-c]pyridin-1-yl]-1-piperidyl]propoxy]-1-piperidyl]-N-[3-(3-chloro-4-cyano-phenoxy)-2,2,4,4-tetramethyl-cyclobutyl]pyrimidine-5-carboxamide] came in with an IC50 in the test with VCaP cells not above 0.1 nM. For the same compound, the EC50 in the test with AR / CBP ternary complex was less than 1 nM.

`CC(=O)N1CCc2c(c(N3CCCc4cc(-c5cnn(C)c5)c(C)cc43)nn2C2CCN(C3CCC4(CC3)CN(c3ncc(C(=O)NC5C(C)(C)C(Oc6ccc(C#N)c(Cl)c6C)C5(C)C)cn3)C4)CC2)C1` (centres unmarked) [Compound 473, 2-[7-[4-[5-acetyl-3-[7-methyl-6-(1-methylpyrazol-4-yl)-3,4-dihydro-2H-quinolin-1-yl]-6,7-dihydro-4H-pyrazolo[4,3-c]pyridin-1-yl]-1-piperidyl]-2-azaspiro[3.5]nonan-2-yl]-N-[3-(3-chloro-4-cyano-2-methyl-phenoxy)-2,2,4,4-tetramethyl-cyclobutyl]pyrimidine-5-carboxamide] yielded a half-maximal inhibitory concentration (IC50) in the test with VCaP cells of 0.1 to 1 nM. The compound also yielded an EC50 with AR / CBP ternary complex of less than 1 nM.

As for `COc1cc(OC2C(C)(C)C(NC(=O)c3ccc(N4CC(N5CCC6(CCC(n7nc(N8CCCc9cc(-c%10cnn(C)c%10)c(C(F)F)cc98)c8c7CCN(C(C)=O)C8)CC6)C5)C4)cc3)C2(C)C)ccc1C#N` (centres unmarked) [Compound 402, 4-[3-[8-[5-acetyl-3-[7-(difluoromethyl)-6-(1-methylpyrazol-4-yl)-3,4-dihydro-2H-quinolin-1-yl]-6,7-dihydro-4Hpyrazolo[4,3-c]pyridin-1-yl]-2-azaspiro[4.5]decan-2-yl]azetidin-1-yl]-N-[3-(4-cyano-3-methoxy-phenoxy)-2,2,4,4-tetramethyl-cyclobutyl]benzamide], the IC50 in the test with VCaP cells was not above 0.1 nM. The EC50 with AR / CBP ternary complex is less than 1 nM.

These data come from patent publication US20250129070A1, “BIFUNCTIONAL ANDROGEN RECEPTOR COMPOUNDS” (priority 2023, published 2025).
